We go through four molecules from article PMC6797721, “Unveil the Anticancer Potential of Limomene Based Therapeutic Deep Eutectic Solvents” (Scientific Reports, 2019).

What all share (format): cell-based, Human
The test system of one series is Caco-2 cells. The series is described as follows: Cytotoxicity assay (MTS) in confluent non-differentiated Caco-2 cells. The note with it: isolated compounds; Caco-2, 24 hours, mean ± SD. The procedure: (§1) Human Caco-2 and HT29 cell lines were obtained from Deutsche Sammlung von Mikroorganismen und Zellkulturen (DSMZ, Germany) and American Type Culture Collection (ATCC, USA), respectively. These cell lines were cultured in RPMI 1640 medium supplemented with 10% of heat-inactivated fetal bovine serum (FBS) and 1% […] (PS). Cells were maintained at 37°C with 5% CO2 in a humidified incubator and routinely grown as a monolayer in 75 cm^2 culture flasks. The cell culture medium and supplements were purchased from Invitrogen (Gibco, Invitrogen Corporation, UK). Cytotoxicity assay was performed using confluent and non-differentiated Caco-2 cells, a model considered to assess the effect of chemical/food compounds and nano/microparticles on the intestinal function since it shares characteristics of the enterocytes. The assay was performed as previously described by Rodrigues et al.[71]. Briefly, Caco-2 cells were seeded into 96-well plates at a density of 2 × 10^4 cells/well and allowed to grow for 7 days, with medium renewal every 48 hours. At day 7, cells were incubated with the samples diluted in culture medium. Cells incubated only with culture medium were considered as control. After 24 hours, cells were washed once with PBS (Sigma-Aldrich, USA) and cell viability was assessed using CellTiter 96® AQueous One Solution Cell Proliferation Assay (Promega, USA) containing MTS reagent, according to manufacturer's instructions. The absorbance was measured at 490 nm using a Spark® 10 M Multimode Microplate Reader (Tecan Trading AG, Switzerland) and cell viability was expressed in terms of percentage of living cells relatively to the control. At least three independent experiments were performed in triplicate. All data were expressed as mean ± standard errors (SD). GraphPad Prism 6 software was used to calculate EC50 values (the concentration of sample necessary to decrease 50% of cell population) and to analyse significant differences between data set through One-Way Analysis of Variance (ANOVA) following Dunnett's multiple comparison tests.

Series [1] concerns HT29 cells. The series is described as follows: Antiproliferative assay in HT29 cell monolayer (MTS). The note with it: isolated compounds, HT29, 24 hours, mean ± SD. How it is done: Human Caco-2 and HT29 cell lines were obtained from Deutsche Sammlung von Mikroorganismen und Zellkulturen (DSMZ, Germany) and American Type Culture Collection (ATCC, USA), respectively. These cell lines were cultured in RPMI 1640 medium supplemented with 10% of heat-inactivated fetal bovine serum (FBS) and 1% […] (PS). Cells were maintained at 37°C with 5% CO2 in a humidified incubator and routinely grown as a monolayer in 75 cm^2 culture flasks. The cell culture medium and supplements were purchased from Invitrogen (Gibco, Invitrogen Corporation, UK). Antiproliferative effect of […] and standard compounds was evaluated in HT29 cells, as described elsewhere. Briefly, cells were seeded at a density of 1 × 10^4 cells/well in 96-well culture plates. After 24 hours cells were incubated with different concentrations of the samples diluted in culture medium. Cells incubated only with culture medium were considered as control. Cell proliferation was measured after 24 hours using MTS, as mentioned above. Results were expressed in terms of percentage of living cells relatively to the control. At least three independent experiments were performed in triplicate. All data were expressed as mean ± standard errors (SD). GraphPad Prism 6 software was used to calculate EC50 values (the concentration of sample necessary to decrease 50% of cell population) and to analyse significant differences between data set through One-Way Analysis of Variance (ANOVA) following Dunnett's multiple comparison tests.

Series [2] is described as follows: Cytotoxicity assay (MTS) in confluent non-differentiated Caco-2 cells. The note with it: human, confluent, non-differentiated Caco-2 cells; isolated compounds; Caco-2, 24 hours, mean ± SD. The procedure: as §1
Series [3] deals with HT29 cells. The series is described as follows: Cell cycle assessment by flow cytometry. The note with it: HT29, 24 hours, non-cytotoxic concentrations. How it is done:
HT29 cell line was seeded at a density of 1 × 10^6 cells in a 25 cm^2 culture flask for 24 hours. Then, cells were incubated in different concentrations of the samples diluted in culture medium and culture medium alone (as control) for 24 hours. For flow cytometry analysis of DNA content, bare nuclei were prepared as described elsewhere. Briefly, cells were detached from the culture flasks with trypsin-EDTA 0.5% and washed one time with cold PBS. Finally, 1 × 10^6 cells were re-suspended in 1 mL of staining solution containing […] of Propidium Iodide (Sigma-Aldrich, USA), 1.5% (v/v) of Triton X-100 (Sigma-Aldrich, USA), 0.7 U/mL of DNase/protease-free Ribonuclease A (Thermo Scientific, USA) and 0.01 M of NaCl, followed by incubation at room temperature in the dark for 2 hours. Cell cycle was assessed by flow cytometry, using a CyFlow space (Partec GmbH) instrument, registering 30.000 events/sample as described previously.
(In general: Flow cytometry measures light scatter and fluorescence of single cells or particles in a stream.)

In series [4] the test system is HT29 cells. The series is described as follows: Caspase-3 activity induction (apoptosis). The note with it: HT29, 24 hours, 2 mM. The procedure: Apoptosis was evaluated by caspase-3 activity using NucView488TM and MitoView633TM Apoptosis Assay Kit (Biotium, USA) that allows the staining of living cells with a far-red fluorescent dye MitoView633TM, while the intracellular caspase-3/7 activity and cells nuclei morphological changes were stained with bright green fluorescent dye NucView488TM. HT29 cells were seeded at a density of 40.000 cell/cm^2 at 24-well plate for 24 hours. Then, cells were incubated another 24 hours with different concentrations of the samples diluted in culture medium and culture medium alone (as control). Staining was performed with 200 μL/well of culture medium containing 1 μL of NucView488TM and 1 μL of MitoView633TM for 2 hours.

On to `CCCCCCCCCC(=O)O` [CA, Capric acid], for which the 50% effective concentration (EC50) (commonly the concentration needed to bring the measured effect to its halfway point) in the series with Caco-2 cells turned out to be 1330 ± 223 µM; in the series with HT29 cells [1], 341 ± 81 µM.

`CC(C)Cc1ccc(C(C)C(=O)O)cc1` (centres unmarked) [IBU, Ibuprofen]: the EC50 at 24 h in series [2] is 2890 ± 59 µM. In the series on HT29 cells [1] (Homo sapiens, HT-29), this molecule returned an EC50 of 2350 ± 88 µM. Further, the “Effect on cell cycle” value with HT29 cells [3] is reported as “promoted cell cycle arrest in G1-phase”.

As for `CC1CCC(C(C)C)C(O)C1` (centres unmarked) [Menthol, menthol], in series [2], the midpoint of the response, the EC50 at 24 h, lay at 8080 ± 810 µM. Also, the EC50 in the series on HT29 cells [1] (Homo sapiens, HT-29) was 4730 µM.

S-Limonene: the EC50 was found to be 2640 ± 108 µM in the series with Caco-2 cells and 661 ± 25 µM in the series with HT29 cells [1]. The “Effect on cell cycle” value with HT29 cells [3] is listed as “promoted cell cycle arrest in G1-phase”. Also, in the series with HT29 cells [4], the “Induction of apoptosis (caspase-3 activity)” value is given as “capable of inducing apoptosis via caspase-3 activity”.
